From patent US11358992B2, “Cell-penetrating cereblon recombinant fusion protein and use thereof” (UPPTHERA, priority 2020, dated 2022)

B1: 30Kcα-CRBN recombinant fusion protein: Fusion recombinant protein of 30Kc19 α-helix domain (30Kc19α, SEQ ID NO: 1) linked N-terminally to human cereblon (SEQ ID NO: 2) (protein)
chain: ADSDVPNDILEEQLYNSVVVADYDSAVEKSKHLYEEKKSEVITNVVNKLIRNNKMNCMEYAYQLWLQGSKDIVRDCFPVEFRLIFAENMAGEGDQQDAAHNMGNHLPLLPAESEEEDEMEVEDQDSKEAKKPNIINFDTSLPTSHTYLGADMEEFHGRTLHDDDSCQVIPVLPQVMMILIPGQTLPLQLFHPQEVSMVRNLIQKDRTFAVLAYSNVQEREAQFGTTAEIYAYREEQDFGIEIVKVKAIGRQRFKVLELRTQSDGIQQAKVQILPECVLPSTMSAVQLESLNKCQIFPSKPVSREDQCSYKWWQKYQKRKFHCANLTSWPRWLYSLYDAETLMDRIKKQLREWDENLKDDSLPSNPIDFSYRVAACLPIDDVLRIQLLKIGSAIQRLRCELDIMNKCTSLCCKQCQETEITTKNEIFSLSLCGPMAAYVNPHGYVHETLTVYKACNLNLIGRPSTEHSWFPGYAWTVAQCKICASHIGWKFTATKKDMSPQKFWGLTRSALLPTIPDTEDEISPDKVILCL
modifications: 30Kc alpha-CRBN

Test system: MM1.S lenalidomide-resistant cells
Experiment: Cell viability (EZ-Cytox) of lenalidomide-resistant multiple myeloma cells
Assay type: cell-based
Conditions: 42 hours culture + 3 hours EZ-Cytox, absorbance 450 nm
Experimental: The MM1.S cell line (American Type Culture Collection, ATCC from USA) was incubated in RPMI1640 medium containing 10% FBS and 1% penicillin/streptomycin at 37° C. under 5% CO2. The Lenalidomide-resistant MM1.S cell line was established by gradually adding […] lenalidomide (Sigma-Aldrich, Cat No. D2438) from 5 μM to 200 μM to the cell line culture.
In order to evaluate cytotoxic effects of the 30Kcα-CRBN recombinant fusion protein, 1×104 MM1.S lenalidomide-resistant cells were seeded in each well of a 96 well plate. 200 μM of lenalidomide and/or 3 μM of 30Kcα-CRBN recombinant fusion protein were added to each well according to the experimental group. The total medium volume of each well was adjusted to 100 μL. Then, each medium was cultured for 42 hours, and 10 μl of EZ-Cytox (Cat. No. EZ-3000 from Dogen) was added to each well, followed by incubation for 3 hours. Thereafter, absorbance was measured at 450 nm using a microplate reader (Clarostar™ from BMGlabtech), and a cell viability (%) was calculated by using the measured absorbance and shown in FIG. 2.

Molecule	cell viability (lenalidomide 200 μM alone, without 30Kcα-CRBN fusion protein, FIG. 2A)	reduction of cell viability compared with the control (3 μM 30Kcα-CRBN fusion protein in combination with 200 μM lenalidomide, FIG. 2B) [%]
Nc1cccc2c1CN(C1CCC(=O)NC1=O)C2=O (centres unmarked) [lenalidomide]	could not be reduced	
B1		~50
